Data set [1] relates to NCI-H460-Luc. Nature of the data set: Induction of apoptosis in human NCI-H460-Luc cells weakly expressing FHIT assessed as reduction in cell viability measured after 24 hrs by CCK-8 assay. The class given is functional, cell-based.
For data set [2], the system named is HCC827-Luc. Nature of the data set: Induction of apoptosis in human HCC827-Luc cells expressing FHIT assessed as reduction in cell viability measured after 24 hrs by CCK-8 assay. It counts as functional, cell-based.
Data set [3] relates to COc1ccc(-c2c3ccc(=O)cc-3oc3cc(OCOP(=O)(O)OC[C@H]4O[C@@H](n5ccc(N)nc5=O)[C@H](O)[C@@H]4O)ccc23)c(C)c1. Put plainly: Substrate activity at human recombinant FHIT assessed as Km by Michaelis-Menten analysis.
The test system is the same in data set [4]. Nature of the data set: Substrate activity at human recombinant FHIT assessed as Kcat by Michaelis-Menten analysis.
Data set [5] has the same test system. Put plainly: (§1) Substrate activity at human recombinant FHIT assessed as Kcat/Km by Michaelis-Menten analysis.
Data set [6] has as its system COc1ccc(-c2c3ccc(=O)cc-3oc3cc(OCOP(=O)(O)OC[C@H]4O[C@@H](n5cnc6c(=O)[nH]c(N)nc65)[C@H](O)[C@@H]4O)ccc23)c(C)c1. Described as §1.
Data set [7] deals with COc1ccc(-c2c3ccc(=O)cc-3oc3cc(OCOP(=O)(O)OC[C@H]4O[C@@H](n5ccc(=O)[nH]c5=O)[C@H](O)[C@@H]4O)ccc23)c(C)c1. Described as §1.
Data set [8] relates to COc1ccc(-c2c3ccc(=O)cc-3oc3cc(OCOP(=O)(O)OC[C@H]4O[C@@H](n5cnc6c(N)ncnc65)[C@H](O)[C@@H]4O)ccc23)c(C)c1. The data set is described as §1.
Data set [9] concerns the target Bis(5'-adenosyl)-triphosphatase (Homo sapiens) (UniProt P49789). Put plainly: Inhibition of recombinant human FHIT assessed as reduction in AP3Aase activity at 50 uM measured after 45 mins by HPLC analysis relative to control.
For data set [10] the target is unchanged. Nature of the data set: Inhibition of recombinant human FHIT at 10 uM incubated for 1 hr by fluorescence based analysis relative to control.
In data set [11] the test system is HCC827-Luc. Nature of the data set: Induction of caspase-mediated apoptosis in human HCC827-Luc cells assessed as reduction in cell viability pretreated with caspase inhibitor Z-VAD-fmk for 1 hr followed by compound addition and measured after 72 hrs by CCK-8 assay. It counts as functional, cell-based. On the technique in general: Tetrazolium dyes change colour on reduction, which living cells bring about.

In data set [12] the test system is NCI-H460-Luc. Nature of the data set: Induction of apoptosis in human NCI-H460-Luc cells weakly expressing FHIT cocultured with human HCC827-Luc cells assessed as PI-positive cells at 10 uM incubated for 12 hrs by calcein AM/Hoechst/PI staining based confocal fluorescence microscopic analysis. The class given is functional, cell-based.
For data set [13], the target named is Bis(5'-adenosyl)-triphosphatase (Homo sapiens) (UniProt P49789). Put plainly: Noncompetitive inhibition of human recombinant FHIT assessed as reduction in hydrolysis of TG-CMP at 1 to 9 uM measured for 30 mins by Lineweaver-Burk plot analysis. To be noted: dose 1-9 µM.
Chain of Bis(5'-adenosyl)-triphosphatase (Homo sapiens) (P49789 whole entry, looked up): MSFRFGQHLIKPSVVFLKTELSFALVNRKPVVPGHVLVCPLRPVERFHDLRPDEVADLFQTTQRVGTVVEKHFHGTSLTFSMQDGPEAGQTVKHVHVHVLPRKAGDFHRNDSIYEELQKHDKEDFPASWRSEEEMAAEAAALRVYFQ
Data set [14] relates to HCC827-Luc. Nature of the data set: Induction of apoptosis in human HCC827-Luc cells assessed as increase in caspase 3/7 activity at 10 uM measured after 24 hrs by confocal fluorescence microscopic analysis. The class given is functional, cell-based.
The test system of data set [15] is HCC827-Luc. Put plainly: Induction of apoptosis in human HCC827-Luc cells expressing FHIT cocultured with human NCI-H460-Luc cells assessed as PI-positive cells at 10 uM incubated for 12 hrs by calcein AM/Hoechst/PI staining based confocal fluorescence microscopic analysis. The class given is functional, cell-based.
Data set [16] addresses Bis(5'-adenosyl)-triphosphatase (Homo sapiens) (UniProt P49789). Nature of the data set: Inhibition of recombinant human FHIT at 100 uM incubated for 1 hr by fluorescence based analysis relative to control.
Data set [17] relates to HCC827-Luc. Nature of the data set: Induction of apoptosis in human HCC827-Luc cells assessed as increase in caspase 3/7 activity at 1 uM measured after 24 hrs by confocal fluorescence microscopic analysis. It counts as functional, cell-based.

The source made the active and inactive calls. No cut-off for these calls is given here.

Chain of Bis(5'-adenosyl)-triphosphatase (Homo sapiens), P49789 (P49789 whole entry): as the sequence (P49789 whole entry, looked up) above

For the compound `Cc1c(OCc2nn[nH]n2)ccc2c3c(c(=O)oc12)CCCC3`, the result with NCI-H460-Luc [1] and with HCC827-Luc [2] was inactive.

As usually defined, the Km is the concentration of substrate that gives half-maximal velocity. A word on the kcat: it is the maximal rate divided by the concentration of active sites. A word on the kcat/Km: it is the turnover number divided by the Michaelis constant. For “Bis(5'-adenosyl)-triphosphatase (Homo sapiens), P49789”, the Km in data set [3] came to 37 µM. Also, in [4], the turnover number (kcat) was 0.35 s⁻¹. In addition, the kcat/Km was found to be 9330 M⁻¹ s⁻¹ in data set [5], 967 M⁻¹ s⁻¹ in data set [6], 1830 M⁻¹ s⁻¹ in data set [7] and 6330 M⁻¹ s⁻¹ in [8].

A word on the inhibition: it is the change of the read-out against control, counted positive when it falls. Take `CN1C(=O)N/C(=C/c2cccn2-c2ccc(C(=O)O)cc2)C1=O`: the inhibition is 51% in [9] and above 80% in [10].

In the case of `Cc1c(OCC#N)ccc2c3c(c(=O)oc12)CCCC3`, the outcome with NCI-H460-Luc [1] and with HCC827-Luc [2] was inactive.

In the case of `COCC(=O)N1CC[C@@H]2[C@H]1C(=O)NC[C@H](CCC(=O)OC)N2C`, the inhibition in [10] was above 80%.

For `O=C(Cn1cc([N+](=O)[O-])ccc1=O)NC(=O)NCc1ccco1`, the results for the inhibition in data set [9] and in data set [10] were 59% and above 80%, respectively.

As for `Cc1c(OCC(=O)NO)ccc2c3c(c(=O)oc12)CCCC3`, the outcome in the data set on NCI-H460-Luc [1], in the data set with HCC827-Luc [2], in the data set with HCC827-Luc [14] and in the data set on HCC827-Luc [15] was Active. In addition, the outcome in the data set on HCC827-Luc [11] and with NCI-H460-Luc [12] was inactive. The inhibition entry in data set [13] is “Active”.

Take `NNC(=O)c1nn(-c2ccccc2)c(=O)cc1O`: in data set [10], the inhibition was above 80%.

For `O=C(O)c1ccc2[nH]c(-c3ccnc(-c4cccnc4)c3)nc2c1`, the inhibition in [9] was 95%; in [10] it was above 80%.

Turning to `Nc1ncnc2c1ncn2[C@@H]1O[C@H](COP(=O)(O)OP(=O)(O)OP(=O)(O)OC[C@H]2O[C@@H](n3cnc4c(N)ncnc43)[C@H](O)[C@@H]2O)[C@@H](O)[C@H]1O`, the inhibition in [16] is above 50%.

With `Nc1ncnc2c1ncn2[C@@H]1O[C@H](COP(=O)(O)OP(=O)(O)OP(=O)(O)OP(=O)(O)OC[C@H]2O[C@@H](n3cnc4c(N)ncnc43)[C@H](O)[C@@H]2O)[C@@H](O)[C@H]1O`, in [16], the inhibition is above 50%.

As for `CCOC(=O)c1c(C)sc(N)c1C(=O)OCC`, in [10], the inhibition is above 80%.

On to `CN[C@@H]1C[C@H]2O[C@@](C)([C@@H]1OC)n1c3ccccc3c3c4c(c5c6ccccc6n2c5c31)C(=O)NC4`, for which the outcome with HCC827-Luc [17] was inactive.

In the case of `O=C(O)c1ccc(/C=N/NC(=O)c2nc(-c3ccccc3)n(-c3ccccc3)n2)cc1`, the inhibition in [10] is above 80%.

With `Nc1ncnc2c1ncn2[C@@H]1O[C@H](COP(=O)(O)O)[C@@H](O)[C@H]1O`, in data set [16], the inhibition was above 50%.

As for `Cc1c(OCc2nn[nH]n2)ccc2c3c(c(=O)oc12)CCC(C)C3` (stereo not given), the inhibition in data set [9] is 76%; in [10] it was above 80%.

Regarding `Cc1c(OCC(=O)O)ccc2c3c(c(=O)oc12)CCCC3`, the outcome with NCI-H460-Luc [1] and in the data set on HCC827-Luc [2] was inactive.

The values above are taken from ChEMBL document CHEMBL5032508, “Synthesis of Fluorescent Probes Targeting Tumor-Suppressor Protein FHIT and Identification of Apoptosis-Inducing FHIT Inhibitors” (J Med Chem, 2021).
